How the values were obtained:
[1] = test system: Hep 3B2; experiment: Down regulation of FAM69A expression in human Hep3B cells at 1 uM after 6 to 24 hrs by L1000 expression profiling method relative to control; format: functional
[2] = test system: Hep 3B2; experiment: Induction of autophagy in human Hep3B cells assessed as ratio of LC3-2 to beta actin level at 40 uM after 72 hrs in presence of curcumin by Western blot analysis
[3] = test system: Hep 3B2; experiment: Cell cycle arrest in human Hep3B cells assessed as accumulation at G2/M phase at 40 uM after 24 hrs by propidium iodide staining based flow cytometry (reference value: 31.8 to […]%); format: functional

Compound: O=C1COc2ccccc2N1Cc1cn(CCC2OCCO2)nn1
- log2FC [1]: -4.3309

Compound: COc1ccc(CNC(=O)Nc2ncc([N+](=O)[O-])s2)cc1
- Ratio [2]: 2.6
- Activity [3]: 37.6%
